Where two headings read alike, the source gives them in different places.
What was measured:
Campylobacter = experiment: In vitro comparative zone diameter test on Müller-Hinton-Agar; format: cell-based; settings: amount used: novel compound 0.05 mL, Cephalosporin 0.1 mL, Ampicillin 0.2 mL
Histoplasma capsulatum = format: cell-based; settings: Müller-Hinton-Agar, amount used: novel compound 0.05 mL, Cephalosporin 0.1 mL, Ampicillin 0.2 mL
Pasteurella = experiment: In vitro comparative zone diameter test on Müller-Hinton-Agar; format: cell-based; settings: amount used: novel compound 0.05 mL, Cephalosporin 0.1 mL, Ampicillin 0.2 mL
Microsporidia = experiment: as above; format: cell-based; settings: amount used: novel compound 0.05 mL, Cephalosporin 0.1 mL, Ampicillin 0.2 mL
Cryptococcus = experiment: as above; format: cell-based; settings: amount used: novel compound 0.05 mL, Cephalosporin 0.1 mL, Ampicillin 0.2 mL
Candida = experiment: as above; format: cell-based; settings: amount used: novel compound 0.05 mL, Cephalosporin 0.1 mL, Ampicillin 0.2 mL
Micrococcus = experiment: as above; format: cell-based; settings: amount used: novel compound 0.05 mL, Cephalosporin 0.1 mL, Ampicillin 0.2 mL
humans = experiment: Clinical pilot study of side effects after inhalation; settings: 80 humans
rats [1] = settings: p.o., 2,250 µL / kg
mice [2] = settings: p.o., 2,000 µL / kg
rats [3] = system: rats
mice [4] = system: mice
[5] = inhalation, 10ml 2% / 30 kg every 8 hours for seven (7) days
[6] = inhalatory application, 2,500 µL / kg
[7] = inhalatory application, after 14 days
[8] = inhalatory application, 2,250 µL / kg

CC1(C)S[C@@H]2[C@H](NC(=O)[C@H](N)c3ccccc3)C(=O)N2[C@H]1C(=O)O [Ampicilin, Ampicillin]
R (evaluation of the results by zone diameter) (Campylobacter): MS (5 - 9 mm: moderately sensitive: MS)
zone diameter (Campylobacter): 7 mm
R (evaluation of the results by zone diameter) (Histoplasma capsulatum): R (0mm - 4mm: resistant: R)
zone diameter (Histoplasma capsulatum): 2 mm
R (evaluation of the results by zone diameter) (Pasteurella): MS (5 - 9 mm: moderately sensitive: MS)
zone diameter (Pasteurella): 5 mm
R (evaluation of the results by zone diameter) (Microsporidia): R (0mm - 4mm: resistant: R)
zone diameter (Microsporidia): 3 mm
R (evaluation of the results by zone diameter) (Cryptococcus): R (0mm - 4mm: resistant: R)
zone diameter (Cryptococcus): 0 mm
R (evaluation of the results by zone diameter) (Candida): R (0mm - 4mm: resistant: R)
zone diameter (Candida): 4 mm
R (evaluation of the results by zone diameter) (Micrococcus): R (0mm - 4mm: resistant: R)
zone diameter (Micrococcus): 0 mm

C=CCc1ccc(O)c(OC)c1.CCN(CC)CC(=O)Nc1c(C)cccc1C [Novel Compound, N-[N'-(carboxymethylenyl-2,6-dimethyl-aniline)-N,N-diethylammonium]-[2'-methoxy-4'-(2'-propenyl)]-phenolate.]
R (evaluation of the results by zone diameter) (Campylobacter): ES (21 mm and more: extremely sensitive: ES)
zone diameter (Campylobacter): 32 mm
R (evaluation of the results by zone diameter) (Pasteurella): ES (21 mm and more: extremely sensitive: ES)
zone diameter (Pasteurella): 36 mm
R (evaluation of the results by zone diameter) (Microsporidia): ES (21 mm and more: extremely sensitive: ES)
zone diameter (Microsporidia): 30 mm
R (evaluation of the results by zone diameter) (Cryptococcus): ES (21 mm and more: extremely sensitive: ES)
zone diameter (Cryptococcus): 31 mm
R (evaluation of the results by zone diameter) (Candida): ES (21 mm and more: extremely sensitive: ES)
zone diameter (Candida): 33 mm
C Reactive Protein (CRP) measurements (humans; blood samples before the test, on the 4th and 8th day): no inflammation was developed
pulse frequency and blood pressure (humans; during the inhalation, 10ml 2% / 30 kg every 8 hours for seven (7) days): not significantly altered
Electrocardiography measurements (humans; during the intake, 10ml 2% / 30 kg every 8 hours for seven (7) days): regular without any pathological and irregular oscillations
coughing (humans; in the very beginning of the test): Sporadic coughing was recorded in some participants
bronchospasms (humans; [5]): No bronchospasms were recorded
dyspnea (humans; [5]): No dyspnea was recorded
respiratory function (humans; [5]): not disturbed
Breading and cardiac functions (rats [1]): regular
time after which discomfort symptoms disappeared (rats [1]): 1 to 3 min
rats that changed their behavior and demonstrated light discomfort (running, anxiety) (rats [1]; out of hundred (100)): 37
Breading and cardiac functions (mice [2]): regular
time after which discomfort symptoms disappeared (mice [2]): 1 to 3 min
mice that changed their behavior and demonstrated light discomfort (running, anxiety) (mice [2]; out of hundred (100)): 23
Breading and cardiac functions (rats [3]; [6]): regular
time after which discomfort symptoms disappeared (rats [3]; [6]): 5 to 6 min
rats that changed their behavior and demonstrated discomfort (running, anxiety) (rats [3]; inhalatory application, 2,500 µL / kg, out of hundred (100)): 29
reexamination of the animals (rats [3]; [7]): no new irregularities were found
Breading and cardiac functions (mice [4]; [8]): regular
time after which discomfort symptoms disappeared (mice [4]; [8]): 3 to 5 min
mice that changed their behavior and demonstrated discomfort (running, anxiety) (mice [4]; inhalatory application, 2,250 µL / kg, out of hundred (100)): 21
reexamination of the animals (mice [4]; [7]): no new irregularities were found
R (evaluation of the results by zone diameter) (Micrococcus): ES (21 mm and more: extremely sensitive: ES)
zone diameter (Micrococcus): 38 mm

— EP4014973B1, “INHALED LIQUID FOR THE TREATMENT OF RESPIRATORY INFECTIONS IN HUMANS CAUSED BY PATHOGENS RESISTANT TO ANTIBIOTICS” (Conick Biotech LLC, priority 2020, dated 2022)
